Experimental data reported in ChEMBL document CHEMBL1156829 (Proc Natl Acad Sci U S A, 2008).

Columns and labels:
Plasmodium falciparum [1] = experiment: NOVARTIS: Inhibition of Plasmodium falciparum W2 (drug-resistant) proliferation in erythrocyte-based infection assay; assay type: functional, organism-based; conditions: Plasmodium falciparum, W2; read-out: EC50
Plasmodium falciparum [2] = experiment: NOVARTIS: Inhibition of Plasmodium falciparum 3D7 (drug-susceptible) proliferation in erythrocyte-based infection assay; assay type: functional, organism-based; conditions: Plasmodium falciparum, 3D7
[3] = NOVARTIS: Cytotoxicity against human hepatocellular carcinoma cell line (Huh7); assay type: toxicity, cell-based, Huh-7; conditions: Huh7 cells (hepatocellular carcinoma cell line)

Row | Structure (SMILES) | EC50 (Plasmodium falciparum [1]) [nM] | EC50 (Plasmodium falciparum [2]) [nM] | CC50 [3] [µM]
1 | NCCCCCCNc1ccnc2cc(Cl)ccc12 | 132 | 288 | > 10
2 | OCCNc1nc(Nc2ccccc2)nc2ccccc12 | 626 | 167 | 47.5
3 | CCOC(=O)C1=C(C)N=c2sc(=Cc3cc(Cl)ccc3O)c(=O)n2C1c1ccc2c(c1)OCO2 (stereo unspecified) | 1310 | 4930 | > 100
4 | O=C(COC(c1cccs1)c1cccnc1Cl)N1CCN(CCO)CC1 (stereo unspecified) | 1290 | > 12500 | > 100
5 | CN1CCN(CCCNc2ccnc3cc4ccccc4cc23)CC1 | 78.5 | 24.1 | 5.93
6 | COc1cc2c(cc1C=C(C#N)c1cccc(C)c1)OCO2 | 1310 | > 9740 | > 100
7 | COc1cc(C(C(=O)NCc2ccccc2)N(C(=O)c2snc(C(N)=O)c2N)c2ccc(C(C)C)cc2)cc(OC)c1OC (stereo unspecified) | 1290 | 2450 | > 100
8 | CCN1CCN(c2cc(C)c3cc(NC(=O)c4cccc([N+](=O)[O-])c4)ccc3n2)CC1 | 267 | 96 | 20.3
9 | O=C(Nc1ccccc1F)NC1CC2CCCC(C1)N2CCc1ccccc1 (stereo unspecified) | 140 | 440 | > 10.6
10 | COc1cc2nc(NCCN3CCOCC3)n3nc(-c4ccccc4)nc3c2cc1OC | 134 | 114 | > 10
11 | C=CCC(=O)NC1CCN(CC(O)CN(Cc2ccccc2)S(=O)(=O)c2ccccc2)C1 (stereo unspecified) | 1330 | 257 | > 100
12 | CCCN(CCC)CCCNc1ccc(C(=O)Nc2cccc(OC)c2)cc1[N+](=O)[O-] | 320 | 159 | 24
13 | CCC(CC)C(=O)Nc1c2c(nn1-c1cccc(Cl)c1)C[S+]([O-])C2 (stereo unspecified) | 1300 | 11900 | > 100
14 | CN(CCCNc1ccnc2cc(Cl)ccc12)C(=O)C12CC3CC(CC(C3)C1)C2 | 184 | 53 | 14.1
15 | COc1ccc2cc(CNC3CCN(Cc4ccccc4)CC3)c(=O)[nH]c2c1 | 856 | 671 | > 65.9
16 | COc1ccc(C=C2N=C(c3ccc(Cl)cc3)N(c3cc(Cl)ccc3C)C2=O)cc1OC | 1320 | 3480 | > 100
17 | O=C(O)CS(=O)(=O)c1ccc(C(=O)NCC(c2cccnc2)N2CCOCC2)cn1 (stereo unspecified) | 131 | > 876 | > 10
18 | O=C(O)CCCNC(=O)C(O)(c1ccccc1)c1ccccc1 | 1330 | > 12500 | > 100
19 | COc1ccc(CCNC(=O)CN(c2ccc(OC)c(OC)c2)S(=O)(=O)c2ccc(C)cc2)cc1OC | 1330 | > 12500 | > 100
20 | COc1ccccc1CNC(=O)CCn1c(=O)[nH]c2ccccc2c1=O | 133 | 537 | > 10
21 | COc1cc(C(=O)OCCC2CCC[N+]3(C)CCCCC23)cc(OC)c1OC (stereo unspecified) | 1340 | > 12500 | > 100
22 | CC(=O)N1CCOC1C(C)(C)CC=C(C)CCC=C(C)C (stereo unspecified) | 1340 | 2040 | > 100
23 | CCNC(=O)C1CCN(c2cccc3c2C(=O)N(C2CCCCCCC2)C3=O)CC1 | 1310 | 1750 | > 100
24 | CSc1ccc(/C=C/C(=O)NC(=O)c2ccccc2O)cc1 | 131 | 127 | > 10
25 | COc1ccc(-c2c[n+](CC(=O)c3ccccc3Cl)c3n2CCC3)cc1 | 1290 | 1070 | > 100
26 | Oc1ccc(-c2ccccc2)cc1CN1CCCCC1 | 132 | 1080 | > 10

Row | Structure (SMILES) | EC50 (Plasmodium falciparum [1]) [nM] | EC50 (Plasmodium falciparum [2]) [nM] | CC50 [3] [µM]
27 | Cc1noc(-c2ccc(O)cc2O)c1-c1ccc2c(c1)OCCO2 | 204 | 248 | 15.2
28 | Oc1c2c(nc3cc(-c4ccc(Br)cc4)nn13)CCCC2 | 1300 | 522 | > 100
29 | COC(=O)[C@@H]1C[C@@H](NC(=O)c2ccc(OC)cc2OC)CN1Cc1cc(C)ccc1C | 1320 | 1070 | > 100
30 | COc1ccc(C(=O)C[N+]2=C(C)c3ccc(C)n3CC2)cc1 | 1290 | 1170 | > 100
31 | Cc1cc(I)ccc1NC(=O)CNC(=O)OCc1ccccc1 | 1280 | > 12500 | > 100
32 | O=C(NNC(=O)c1csnn1)c1ccc(Cl)cc1 | 1290 | 781 | > 100
33 | O=C(Nc1ccc(CC2=NCCCN2)cc1)c1ccc(C(=O)Nc2ccc(CC3=NCCCN3)cc2)cc1 | 128 | 127 | > 10
34 | CCOC(=O)C1=CN(c2cc(C)ccc2C)C=C(C(=O)OCC)C1c1ccccc1OC | 1280 | 4430 | > 100
35 | NC(=NOC(=O)c1ccccc1I)c1ccccn1 | 831 | 6030 | 63
36 | COC(=O)c1c(NC(=O)c2c(-c3ccccc3)noc2C)sc2c1CCC2 | 1330 | 2980 | > 100
37 | CCCc1c(C)nc2ccc(Br)cc2c1O | 1340 | 1510 | > 100
38 | N#CCSc1ncccc1C(=O)NCCc1ccc(Oc2ccccc2)cc1 | > 130 | 1630 | > 10
39 | CN(C)/C=C1\Oc2ccccc2N=C1Cl | 132 | 153 | > 10
40 | CCCCOc1ccc(C(=O)Oc2ccccc2-c2nc3cc(C)ccn3c2NC(C)(C)CC(C)(C)C)cc1 | 130 | 804 | > 10
41 | COc1cccc2c(C)nc(N=C(N)N)nc12 | 688 | 291 | 53.5
42 | c1ccc(-c2nn(-c3ccccc3)[n+](-c3cccc4ccccc34)n2)cc1 | 131 | > 417 | > 10
43 | CC(C)(C)c1ccc(C(=O)N2CCCn3cccc3C2c2ccc(C(C)(C)C)cc2)cc1 (stereo unspecified) | 1290 | 1560 | > 100
44 | CC[N+]1(CCOc2ccc(C34CC5CC(CC(C5)C3)C4)cc2)CCCCC1 | 746 | 1010 | 58.2
45 | O=C(Nc1ccc(Cl)cc1Cl)c1ccc(-c2nc(-c3ccccc3Cl)cs2)cc1 | 106 | 150 | > 7.93
46 | CC(C)N1CCCc2cc(CN3CCC(n4cc(C(=O)NCCCO)nn4)CC3)ccc21 | 134 | > 1250 | > 10
47 | COc1ccc(NC(=O)CN2CCN(S(=O)(=O)c3cccc([N+](=O)[O-])c3)CC2)c(OC)c1 | 1300 | > 12500 | > 100
48 | Cc1nc(NC(=N)N)nc2ccccc12 | 858 | 887 | 66.4
49 | CC(C)(C)CC(C)(C)Nc1c(-c2ccccc2OC(=O)c2cccc(C(F)(F)F)c2)nc2ccccn12 | 134 | 957 | > 10
50 | Oc1cccc2ccc[n+](CC(O)Cn3c4ccccc4c4ccccc43)c12 (stereo unspecified) | 651 | 199 | 49.2
51 | CCCn1c(=N)c(C(=O)NC2CCCCC2)cc2c(=O)n3cccc(C)c3nc21 | 1290 | 460 | > 100
52 | CC(=NNC(=N)N)c1ccc(C)cc1 | 250 | 2040 | 19.3
